Literature values in US11304902B2, “Pharmaceutical compositions, preparation and uses thereof” (CURADIGM SAS, priority 2014, dated 2022).
“Also recorded” adds a separate entry of the source. Where two headings read alike, the source gives them in different places.

Assays:
Conditions in all cases: human CYP enzyme
CYP2D6 = CYP2D6 (Homo sapiens, UniProt P10635)
CYP3A4 = CYP3A4 (Homo sapiens, UniProt P08684)
CYP2B6 = biological target: T1, CYP2B6 (Homo sapiens, UniProt P20813)
T1 sequence (P20813 1-491): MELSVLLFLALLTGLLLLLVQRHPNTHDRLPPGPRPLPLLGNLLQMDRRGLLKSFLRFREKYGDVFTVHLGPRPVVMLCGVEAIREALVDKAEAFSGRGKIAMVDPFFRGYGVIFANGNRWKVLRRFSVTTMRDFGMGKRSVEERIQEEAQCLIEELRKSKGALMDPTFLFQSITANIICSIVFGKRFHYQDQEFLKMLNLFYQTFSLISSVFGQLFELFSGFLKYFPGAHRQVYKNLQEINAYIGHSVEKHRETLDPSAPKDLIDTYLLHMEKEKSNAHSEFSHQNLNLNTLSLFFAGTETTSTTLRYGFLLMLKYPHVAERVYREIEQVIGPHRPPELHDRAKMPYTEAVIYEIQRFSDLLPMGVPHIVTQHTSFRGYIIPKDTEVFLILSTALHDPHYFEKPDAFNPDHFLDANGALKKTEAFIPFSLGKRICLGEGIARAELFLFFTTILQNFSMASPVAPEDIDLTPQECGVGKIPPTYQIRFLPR

CYP2C8 = biological target: T2, CYP2C8 (Homo sapiens, UniProt P10632)
T2 sequence (P10632 1-490): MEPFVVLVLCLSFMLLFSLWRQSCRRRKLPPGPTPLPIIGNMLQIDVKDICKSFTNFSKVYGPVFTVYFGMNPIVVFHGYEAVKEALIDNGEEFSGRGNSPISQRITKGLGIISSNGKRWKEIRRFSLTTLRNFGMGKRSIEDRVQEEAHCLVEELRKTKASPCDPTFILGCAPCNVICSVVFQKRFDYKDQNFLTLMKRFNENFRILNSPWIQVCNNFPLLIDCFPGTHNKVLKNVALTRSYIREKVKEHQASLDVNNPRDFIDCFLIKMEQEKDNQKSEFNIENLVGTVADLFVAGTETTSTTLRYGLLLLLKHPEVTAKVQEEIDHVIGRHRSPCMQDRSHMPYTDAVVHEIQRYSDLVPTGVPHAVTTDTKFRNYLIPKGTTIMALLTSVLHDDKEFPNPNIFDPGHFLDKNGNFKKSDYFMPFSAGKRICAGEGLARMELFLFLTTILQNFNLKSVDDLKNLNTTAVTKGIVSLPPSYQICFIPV

CYP1A1 = biological target: T3, CYP1A1 (Homo sapiens, UniProt P04798)
T3 sequence (P04798 1-512): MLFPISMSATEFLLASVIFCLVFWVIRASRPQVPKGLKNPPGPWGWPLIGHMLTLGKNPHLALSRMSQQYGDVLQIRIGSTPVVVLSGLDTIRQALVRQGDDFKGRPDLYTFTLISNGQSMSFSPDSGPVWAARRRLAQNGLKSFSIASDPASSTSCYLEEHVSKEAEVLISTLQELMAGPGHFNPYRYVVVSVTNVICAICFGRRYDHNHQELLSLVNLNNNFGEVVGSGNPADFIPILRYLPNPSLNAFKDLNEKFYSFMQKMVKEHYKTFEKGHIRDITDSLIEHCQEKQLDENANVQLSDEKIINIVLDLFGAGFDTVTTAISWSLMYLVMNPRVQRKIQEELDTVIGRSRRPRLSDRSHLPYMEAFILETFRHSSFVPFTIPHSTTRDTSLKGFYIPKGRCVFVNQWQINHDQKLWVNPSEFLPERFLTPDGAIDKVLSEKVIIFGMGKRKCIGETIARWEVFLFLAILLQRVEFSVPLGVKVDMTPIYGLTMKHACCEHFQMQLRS

CYP11B1 = biological target: T4, CYP11B1 (Homo sapiens, UniProt P15538)
T4 sequence (P15538 25-503): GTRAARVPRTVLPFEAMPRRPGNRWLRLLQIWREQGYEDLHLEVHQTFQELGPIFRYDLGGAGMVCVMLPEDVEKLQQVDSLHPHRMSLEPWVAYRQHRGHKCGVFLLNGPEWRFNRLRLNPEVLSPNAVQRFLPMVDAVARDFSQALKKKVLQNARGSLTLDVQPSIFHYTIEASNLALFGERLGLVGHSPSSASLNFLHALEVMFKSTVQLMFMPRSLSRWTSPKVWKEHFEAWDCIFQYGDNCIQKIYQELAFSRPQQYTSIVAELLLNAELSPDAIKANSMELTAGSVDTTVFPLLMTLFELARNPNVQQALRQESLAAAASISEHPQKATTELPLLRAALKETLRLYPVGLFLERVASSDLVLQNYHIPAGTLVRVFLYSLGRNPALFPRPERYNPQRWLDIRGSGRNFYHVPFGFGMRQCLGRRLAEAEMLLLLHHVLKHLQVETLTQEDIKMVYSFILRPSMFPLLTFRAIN

CYP2C18 = biological target: T5, CYP2C18 (Homo sapiens, UniProt P33260)
T5 sequence (P33260 26-490): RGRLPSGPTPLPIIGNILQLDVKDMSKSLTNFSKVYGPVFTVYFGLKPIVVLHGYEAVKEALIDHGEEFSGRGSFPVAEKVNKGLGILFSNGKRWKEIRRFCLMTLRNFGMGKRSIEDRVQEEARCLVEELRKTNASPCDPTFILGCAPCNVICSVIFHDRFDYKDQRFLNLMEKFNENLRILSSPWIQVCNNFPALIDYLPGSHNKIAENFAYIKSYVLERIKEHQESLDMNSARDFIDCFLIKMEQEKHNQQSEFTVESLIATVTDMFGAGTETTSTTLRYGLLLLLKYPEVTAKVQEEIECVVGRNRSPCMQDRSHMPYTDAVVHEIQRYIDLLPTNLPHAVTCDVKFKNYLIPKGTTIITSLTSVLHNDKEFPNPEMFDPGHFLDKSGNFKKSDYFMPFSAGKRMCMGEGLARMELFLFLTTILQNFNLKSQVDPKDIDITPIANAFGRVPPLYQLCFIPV

CYP1A2 = biological target: T6, CYP1A2 (Homo sapiens, UniProt P05177)
T6 sequence (P05177 1-516): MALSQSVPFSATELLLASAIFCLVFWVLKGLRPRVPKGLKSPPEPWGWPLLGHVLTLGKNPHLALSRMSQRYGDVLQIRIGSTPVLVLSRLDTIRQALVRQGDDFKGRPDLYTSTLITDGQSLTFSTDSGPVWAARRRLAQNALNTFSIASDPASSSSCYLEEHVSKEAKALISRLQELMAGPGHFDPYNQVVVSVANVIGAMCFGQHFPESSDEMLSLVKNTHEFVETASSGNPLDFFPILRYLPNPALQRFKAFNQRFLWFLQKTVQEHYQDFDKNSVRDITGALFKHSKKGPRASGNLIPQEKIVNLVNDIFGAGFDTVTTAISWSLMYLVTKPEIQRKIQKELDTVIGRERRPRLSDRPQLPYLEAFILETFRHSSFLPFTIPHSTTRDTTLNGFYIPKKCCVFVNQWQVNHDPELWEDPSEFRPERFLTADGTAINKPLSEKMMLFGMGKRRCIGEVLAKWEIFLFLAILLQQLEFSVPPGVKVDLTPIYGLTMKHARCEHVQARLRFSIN

CYP2C19 = CYP2C19 (Homo sapiens, UniProt P33261)
CYP2C9 = CYP2C9 (Homo sapiens, UniProt P11712)
CYP19 = biological target: T7, CYP19 (Homo sapiens, UniProt P11511)
T7 sequence (P11511 1-503): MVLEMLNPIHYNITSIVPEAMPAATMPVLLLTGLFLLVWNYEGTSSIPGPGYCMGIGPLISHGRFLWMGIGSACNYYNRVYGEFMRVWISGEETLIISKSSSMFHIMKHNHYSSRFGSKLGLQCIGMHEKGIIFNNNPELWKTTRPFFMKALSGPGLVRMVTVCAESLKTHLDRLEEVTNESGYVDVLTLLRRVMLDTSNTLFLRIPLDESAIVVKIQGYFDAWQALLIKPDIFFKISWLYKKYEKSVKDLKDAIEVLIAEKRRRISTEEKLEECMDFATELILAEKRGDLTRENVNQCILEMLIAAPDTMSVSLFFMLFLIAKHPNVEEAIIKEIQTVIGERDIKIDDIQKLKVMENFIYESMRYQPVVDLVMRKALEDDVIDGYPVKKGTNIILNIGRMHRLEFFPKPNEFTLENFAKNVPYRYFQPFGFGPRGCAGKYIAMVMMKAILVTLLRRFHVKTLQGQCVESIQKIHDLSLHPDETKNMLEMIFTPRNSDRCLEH

CYP1B1 = biological target: T8, CYP1B1 (Homo sapiens, UniProt Q16678)
T8 sequence (Q16678 1-543): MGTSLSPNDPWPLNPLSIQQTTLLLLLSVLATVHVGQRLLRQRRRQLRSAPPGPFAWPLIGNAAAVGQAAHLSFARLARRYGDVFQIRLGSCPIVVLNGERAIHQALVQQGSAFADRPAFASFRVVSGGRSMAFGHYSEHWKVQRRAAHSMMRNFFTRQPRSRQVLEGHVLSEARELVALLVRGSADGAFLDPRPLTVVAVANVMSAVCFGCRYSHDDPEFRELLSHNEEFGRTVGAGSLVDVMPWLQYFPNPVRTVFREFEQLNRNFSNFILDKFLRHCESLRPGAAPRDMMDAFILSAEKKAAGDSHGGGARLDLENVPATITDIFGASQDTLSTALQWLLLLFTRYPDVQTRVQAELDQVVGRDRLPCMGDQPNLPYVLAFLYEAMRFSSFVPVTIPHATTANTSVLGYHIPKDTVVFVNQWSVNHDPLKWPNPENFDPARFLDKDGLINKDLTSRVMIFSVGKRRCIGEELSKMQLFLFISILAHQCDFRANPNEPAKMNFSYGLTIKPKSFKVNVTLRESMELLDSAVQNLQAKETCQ

Chain of CYP2D6 (P10635 whole entry): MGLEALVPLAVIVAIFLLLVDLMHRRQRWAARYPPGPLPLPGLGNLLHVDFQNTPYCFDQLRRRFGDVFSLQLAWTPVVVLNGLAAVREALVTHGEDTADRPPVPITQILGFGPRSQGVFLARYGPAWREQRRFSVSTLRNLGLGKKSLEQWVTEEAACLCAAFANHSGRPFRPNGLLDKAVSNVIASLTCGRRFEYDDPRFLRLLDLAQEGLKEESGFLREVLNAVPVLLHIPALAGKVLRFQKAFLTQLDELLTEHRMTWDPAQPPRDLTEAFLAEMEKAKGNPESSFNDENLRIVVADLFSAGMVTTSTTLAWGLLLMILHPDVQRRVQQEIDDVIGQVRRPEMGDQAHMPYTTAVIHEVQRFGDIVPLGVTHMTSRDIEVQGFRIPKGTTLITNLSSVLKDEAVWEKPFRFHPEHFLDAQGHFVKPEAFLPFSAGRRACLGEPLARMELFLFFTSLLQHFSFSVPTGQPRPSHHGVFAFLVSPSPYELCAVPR
Chain of CYP3A4 (P08684 whole entry): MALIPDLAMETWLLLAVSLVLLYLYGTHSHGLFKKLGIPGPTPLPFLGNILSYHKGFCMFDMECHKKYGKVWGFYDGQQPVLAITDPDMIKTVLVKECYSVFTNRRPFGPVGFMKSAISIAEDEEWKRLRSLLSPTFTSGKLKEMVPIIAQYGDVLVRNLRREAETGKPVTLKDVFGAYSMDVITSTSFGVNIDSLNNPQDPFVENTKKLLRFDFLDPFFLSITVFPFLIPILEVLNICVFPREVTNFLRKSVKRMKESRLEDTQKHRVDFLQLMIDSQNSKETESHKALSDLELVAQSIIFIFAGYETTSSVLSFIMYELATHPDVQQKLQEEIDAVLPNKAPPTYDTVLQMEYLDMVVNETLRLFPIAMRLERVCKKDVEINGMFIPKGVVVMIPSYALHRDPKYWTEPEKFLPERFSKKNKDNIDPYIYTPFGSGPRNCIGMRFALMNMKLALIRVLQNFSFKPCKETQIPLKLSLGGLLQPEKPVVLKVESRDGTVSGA
Chain of CYP2C19 (P33261 whole entry): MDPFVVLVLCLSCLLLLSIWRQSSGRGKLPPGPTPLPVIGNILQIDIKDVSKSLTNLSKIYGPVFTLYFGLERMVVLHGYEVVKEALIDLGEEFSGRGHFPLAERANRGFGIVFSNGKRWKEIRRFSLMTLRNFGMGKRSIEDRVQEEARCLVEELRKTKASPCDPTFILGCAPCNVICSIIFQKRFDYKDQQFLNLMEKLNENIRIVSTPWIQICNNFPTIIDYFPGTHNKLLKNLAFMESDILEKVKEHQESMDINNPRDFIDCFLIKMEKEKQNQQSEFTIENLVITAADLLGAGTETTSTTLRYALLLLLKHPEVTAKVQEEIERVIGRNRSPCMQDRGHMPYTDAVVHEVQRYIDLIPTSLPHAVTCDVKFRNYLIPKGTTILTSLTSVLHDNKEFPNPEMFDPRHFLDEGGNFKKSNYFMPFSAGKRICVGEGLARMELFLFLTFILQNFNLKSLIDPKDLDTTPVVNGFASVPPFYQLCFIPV
Chain of CYP2C9 (P11712 whole entry): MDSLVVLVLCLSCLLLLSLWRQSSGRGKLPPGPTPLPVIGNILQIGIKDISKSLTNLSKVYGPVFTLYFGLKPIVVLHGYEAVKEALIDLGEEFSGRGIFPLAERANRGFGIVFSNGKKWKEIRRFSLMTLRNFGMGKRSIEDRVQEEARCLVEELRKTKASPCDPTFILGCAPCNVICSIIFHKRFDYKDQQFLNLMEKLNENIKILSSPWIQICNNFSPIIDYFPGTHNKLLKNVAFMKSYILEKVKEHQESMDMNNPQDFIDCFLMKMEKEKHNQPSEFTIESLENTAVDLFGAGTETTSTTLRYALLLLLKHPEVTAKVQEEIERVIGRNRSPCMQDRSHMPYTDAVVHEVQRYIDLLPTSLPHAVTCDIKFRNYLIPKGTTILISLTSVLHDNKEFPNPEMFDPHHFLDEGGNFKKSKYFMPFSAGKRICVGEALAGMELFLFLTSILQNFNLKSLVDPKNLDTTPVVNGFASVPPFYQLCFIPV

| SMILES | role towards CYP2D6 (substrate / inhibitor / inducer) (CYP2D6) | role towards CYP3A4 (substrate / inhibitor / inducer) (CYP3A4) | role towards CYP2B6 (substrate / inhibitor / inducer) (CYP2B6) | role towards CYP2C8 (substrate / inhibitor / inducer) (CYP2C8) | role towards CYP1A1 (substrate / inhibitor / inducer) (CYP1A1) | further results |
| --- | --- | --- | --- | --- | --- | --- |
| COc1cccc2c1C(=O)c1c(O)c3c(c(O)c1C2=O)C[C@@](O)(C(=O)CO)C[C@@H]3O[C@H]1C[C@H](N)[C@H](O)[C@H](C)O1 [Doxorubicin, doxorubicin] | inhibitor | Substrate; also recorded: inhibitor |  |  |  |  |
| CC1=C(/C=C/C(C)=C/C=C/C(C)=C/CO)C(C)(C)CCC1 [Vitamin A retinol, retinol] | Substrate |  | Inhibitor | Inhibitor; also recorded: Substrate | Inhibitor |  |
| O=C1C[C@@H](c2ccc(O)cc2)Oc2cc(O)cc(O)c21 [Naringenin, naringenin] |  | inhibitor |  |  |  | role towards CYP11B1 (substrate / inhibitor / inducer) (CYP11B1): Inhibitor |
| O=C1Nc2ccc(Cl)cc2[C@@](C#CC2CC2)(C(F)(F)F)O1 [Efavirenz, efavirenz] | inhibitor |  | Substrate; also recorded: inhibitor |  |  | role towards CYP2C19 (substrate / inhibitor / inducer) (CYP2C19): inhibitor; role towards CYP2C9 (substrate / inhibitor / inducer) (CYP2C9): inhibitor |
| CO[C@H]1/C=C/O[C@@]2(C)Oc3c(C)c(O)c4c(O)c(c(/C=N/N5CCN(C)CC5)c(O)c4c3C2=O)NC(=O)/C(C)=C\C=C\[C@H](C)[C@H](O)[C@@H](C)[C@@H](O)[C@@H](C)[C@H](OC(C)=O)[C@@H]1C [Rifampin, rifampin] |  |  | inducer |  |  | role towards CYP2C18 (substrate / inhibitor / inducer) (CYP2C18): inducer |
| O=c1c(O)c(-c2ccc(O)c(O)c2)oc2cc(O)cc(O)c12 [Quercetin, quercetin] |  | Inhibitor |  | Inhibitor | Inhibitor | role towards CYP1A2 (substrate / inhibitor / inducer) (CYP1A2): Inhibitor; role towards CYP11B1 (substrate / inhibitor / inducer) (CYP11B1): Inhibitor; role towards CYP19 (substrate / inhibitor / inducer) (CYP19): Inhibitor |

Now from value to compound, other results behind:

| role towards CYP2D6 (substrate / inhibitor / inducer) (CYP2D6) | role towards CYP3A4 (substrate / inhibitor / inducer) (CYP3A4) | role towards CYP2B6 (substrate / inhibitor / inducer) (CYP2B6) | role towards CYP2C8 (substrate / inhibitor / inducer) (CYP2C8) | role towards CYP1A1 (substrate / inhibitor / inducer) (CYP1A1) | SMILES | further results |
| --- | --- | --- | --- | --- | --- | --- |
|  |  |  |  | Inhibitor | O=c1cc(-c2ccc(O)cc2)oc2cc(O)cc(O)c12 [Apigenin, apigenin] |  |
|  | Substrate |  | Substrate | Substrate | CC(=O)CC(c1ccccc1)c1c(O)c2ccccc2oc1=O (stereo not drawn) [Warfarin, warfarin] | role towards CYP2C18 (substrate / inhibitor / inducer) (CYP2C18): Substrate; role towards CYP1A2 (substrate / inhibitor / inducer) (CYP1A2): Substrate |
|  | Substrate; also recorded: inhibitor |  |  |  | CC(=O)O[C@H]1C(=O)[C@@]2(C)[C@H]([C@H](OC(=O)c3ccccc3)[C@]3(O)C[C@H](OC(=O)[C@H](O)[C@@H](NC(=O)c4ccccc4)c4ccccc4)C(C)=C1C3(C)C)[C@]1(OC(C)=O)CO[C@@H]1C[C@@H]2O [Paclitaxel, paclitaxel] |  |
|  | Substrate |  |  |  | CC(=O)O[C@@]12CO[C@@H]1C[C@H](O)[C@@]1(C)C(=O)[C@H](O)C3=C(C)[C@@H](OC(=O)[C@H](O)[C@@H](NC(=O)OC(C)(C)C)c4ccccc4)C[C@@](O)([C@@H](OC(=O)c4ccccc4)[C@H]21)C3(C)C [Docetaxel, docetaxel] | role towards CYP3A4 (substrate / inhibitor / inducer) (CYP3A4; listed as docetaxel): substrate; role towards CYP1B1 (substrate / inhibitor / inducer) (CYP1B1): Substrate; also recorded: inhibitor |
